The values that follow come from US8466088B2, “Herbicidal compositions containing benzoylpyrazole compounds” (Ishihara Sangyo Kaisha, Ltd., priority 2007, dated 2013).

Like-named read-outs stand apart in the source and are kept apart here.

Assay [1] concerns crabgrass. The assay can be described thus: Example 1: pot test, foliar treatment, visually observed growth inhibition of crabgrass. Format: in vivo.
Assay [2] concerns velvetleaf. The assay can be described thus: Example 1: pot test, foliar treatment, visually observed growth inhibition of velvetleaf. The class given is in vivo, Abutilon theophrasti MEDIC.
In assay [3] the test system is various plants. The assay can be described thus: Example 1: pot test, foliar treatment, visually observed growth inhibition of other sown plants (Tables 5-1 to 5-137). The class given is in vivo. The settings on record: for Growth inhibition rate (%) of ivyleaf morningglory, Measured value: ivyleaf morningglory 1.5 to 2.1 leaf stage. An excerpt:
When the herbicidal activity in a case where two active ingredients are combined, is larger than the simple sum of the respective herbicidal activities of the two active ingredients (the expected activity), it is called a synergistic effect. The activity expected by the combination of two active ingredients can be calculated as follows (Colby S. R., “Weed”, vol. 15, p. 20-22, 1967). E=α+β−(α×β+100) where
α: growth inhibition rate when treated with x (g/ha) of herbicide X,
β: growth inhibition rate when treated with y (g/ha) of herbicide Y,
E: growth inhibition rate expected when treated with x (g/ha) of herbicide X and y (g/ha) of herbicide Y.
That is, when the actual growth inhibition rate (measured value) is larger than the growth inhibition rate by the above calculation (calculated value), the activity by the combination can be regarded as showing a synergistic effect.
Upland field soil was put into a 1/1,000,000 hectare pot, and seeds of various plants were sown. When the respective plants reached predetermined leaf stage, herbicidal compositions in predetermined amounts were diluted with water in an amount corresponding to 300 L/ha and applied for foliar treatment by a small sprayer.
On the 14th to 28th day after application, the state of growth of the respective plants was visually observed to determine the growth inhibition rate (measured value) in accordance with the following evaluation standard. Further, in accordance with the above Colby's formula, the growth inhibition rate (calculated value) was calculated. In Tables, with respect to the compound A, Compound Nos. in Table 1 or 3 are described, and with respect to other herbicidal compounds, common names are described.

The mark [4] stands for this setting: 3.2 to 4.3 leaf stage, 21st day after application, 15 g/ha.

As for `COCCOc1c(S(C)(=O)=O)ccc(C(=O)c2cnn(C)c2OC(=O)SC(C)(C)C)c1C` [No. 241], the “Growth inhibition rate (%) of crabgrass, Measured value” in assay [1] (3.1 to 4.0 leaf stage, 22nd day after application, 15 g/ha) turned out to be 90%; in assay [1] (3.2 to 4.1 leaf stage, 14th day after application, 15 g/ha), 94%; in assay [1] (3.2 to 4.1 leaf stage, 21st day after application, 7 g/ha), 80%; in assay [1] (3.2 to 4.1 leaf stage, 21st day after application, 15 g/ha), 93%; in assay [1] (3.2 to 4.3 leaf stage, 14th day after application, 15 g/ha) it was 93%; in assay [1] (setting [4]), 88%. Besides, the “Growth inhibition rate (%) of crabgrass, Measured value” is reported as 75% in assay [1] (3.3 to 4.2 leaf stage, 24th day after application, 15 g/ha); 90% in assay [1] (3.5 to 4.2 leaf stage, 14th day after application, 15 g/ha); 30% in assay [1] (3.5 to 4.2 leaf stage, 20th day after application, 1.875 g/ha); 68% in assay [1] (3.5 to 4.2 leaf stage, 20th day after application, 3.75 g/ha); 80% in assay [1] (3.7 to 4.6 leaf stage, 21st day after application, 7 g/ha); 94% in assay [1] (3.7 to 4.6 leaf stage, 21st day after application, 15 g/ha). Moreover, the “Growth inhibition rate (%) of crabgrass, Measured value” in assay [1] (4.0 to 5.0 leaf stage, 21st day after application, 7 g/ha) was found to be 60%; in assay [1] (4.0 to 5.0 leaf stage, 21st day after application, 15 g/ha), 80%. For the same molecule, the “Growth inhibition rate (%) of velvetleaf, Measured value” in assay [2] (2.5 to 3.3 leaf stage, 21st day after application, 7 g/ha) is listed as 65%; in assay [2] (2.5 to 3.3 leaf stage, 21st day after application, 15 g/ha), 80%; in assay [2] (2.6 to 3.3 leaf stage, 20th day after application, 7 g/ha), 70%; in assay [2] (2.8 to 3.6 leaf stage, 24th day after application, 3.75 g/ha), 45%; in assay [2] (3.0 to 4.0 leaf stage, 21st day after application, 7 g/ha) it was 60%; in assay [2] (3.0 to 4.0 leaf stage, 21st day after application, 15 g/ha), 80%. Besides, the “Growth inhibition rate (%) of velvetleaf, Measured value” in assay [2] (setting [4]) was 85%; in assay [2] (3.3 to 4.3 leaf stage, 20th day after application, 3.75 g/ha) it was 45%; in assay [2] (3.3 to 4.3 leaf stage, 20th day after application, 15 g/ha), 80%; in assay [2] (4.0 to 4.4 leaf stage, 22nd day after application, 15 g/ha), 97%. Moreover, the “Growth inhibition rate (%) of ivyleaf morningglory, Measured value” stood at 88% in assay [3] (14th day after application, 75 g/ha) and 85% in assay [3] (23rd day after application, 100 g/ha). For the same molecule, the “Growth inhibition rate (%) of prickly sida, Measured value” in assay [3] (prickly sida 2.1 to 3.1 leaf stage, 20th day after application, 50 g/ha) is given as 60%; in assay [3] (prickly sida 2.1 to 3.1 leaf stage, 20th day after application, 100 g/ha), 60%.
The term inhibition denotes the change of the read-out against control, counted positive when it falls. Take `CCNc1nc(Cl)nc(NC(C)(C)C)n1` [Terbuthylazine, terbuthylazine, reference compound]: the inhibition at 175 g/ha in assay [1] (Digitaria sanguinalis, foliar, 3.1 to 4.0 leaf stage, 22nd day after application, 175 g/ha, read-out: Growth inhibition rate (%) of crabgrass, Measured value) turned out to be 0%; in assay [2] (Abutilon theophrasti, foliar, 4.0 to 4.4 leaf stage, 22nd day after application, 175 g/ha, read-out: Growth inhibition rate (%) of velvetleaf, Measured value) it was 15%. In addition, the inhibition at 375 g/ha in assay [1] (Digitaria sanguinalis, foliar, 3.1 to 4.0 leaf stage, 22nd day after application, 375 g/ha, read-out: Growth inhibition rate (%) of crabgrass, Measured value) was determined as 0%; in assay [2] (Abutilon theophrasti, foliar, 3.3 to 4.3 leaf stage, 20th day after application, read-out: Growth inhibition rate (%) of velvetleaf, Measured value), 20%; in assay [2] (Abutilon theophrasti, foliar, 4.0 to 4.4 leaf stage, 22nd day after application, read-out: Growth inhibition rate (%) of velvetleaf, Measured value), 25%. Further, the inhibition at 250 g/ha was 20% in assay [1] (Digitaria sanguinalis, foliar, 3.2 to 4.3 leaf stage, on the 22nd day after application, foliar, active ingredient amount 250 g/ha, read-out: Growth inhibition rate (%) of crabgrass, Measured value); 0% in assay [1] (Digitaria sanguinalis, foliar, 4.3 to 4.5 leaf stage, 20th day after application, 250 g/ha, read-out: Growth inhibition rate (%) of crabgrass, Measured value); 15% in assay [3] (foliar, prickly sida 2.1 to 3.1 leaf stage, 20th day after application, 250 g/ha, read-out: Growth inhibition rate (%) of prickly sida, Measured value). The inhibition at 125 g/ha came to 0% in assay [1] (Digitaria sanguinalis, foliar, 3.5 to 4.0 leaf stage, 21st day after application, read-out: Growth inhibition rate (%) of crabgrass, Measured value); 0% in assay [1] (Digitaria sanguinalis, foliar, 4.3 to 4.5 leaf stage, 20th day after application, read-out: Growth inhibition rate (%) of crabgrass, Measured value); 0% in assay [2] (Abutilon theophrasti, foliar, 2.0 to 2.5 leaf stage, 21st day after application, 125 g/ha, read-out: Growth inhibition rate (%) of velvetleaf, Measured value); 5% in assay [2] (Abutilon theophrasti, foliar, 2.4 to 3.2 leaf stage, on the 22nd day after application, foliar, active ingredient amount 125 g/ha, read-out: Growth inhibition rate (%) of velvetleaf, Measured value); 0% in assay [2] (Abutilon theophrasti, foliar, 3.0 to 3.5 leaf stage, 20th day after application, 125 g/ha, read-out: Growth inhibition rate (%) of velvetleaf, Measured value); 0% in assay [3] (foliar, prickly sida 2.1 to 3.1 leaf stage, 20th day after application, 125 g/ha, read-out: Growth inhibition rate (%) of prickly sida, Measured value). For the same molecule, the inhibition at 2000 g/ha in assay [2] (Abutilon theophrasti, foliar, 2.8 to 3.6 leaf stage, 24th day after application, 2000 g/ha, read-out: Growth inhibition rate (%) of velvetleaf, Measured value) was determined as 20%. Moreover, in assay [2] (Abutilon theophrasti, foliar, 3.3 to 4.3 leaf stage, 20th day after application, 750 g/ha, read-out: Growth inhibition rate (%) of velvetleaf, Measured value), the inhibition at 750 g/ha came out at 30%. The inhibition at 45 g/ha in assay [3] (foliar, prickly sida 2.1 to 3.1 leaf stage, 20th day after application, 45 g/ha, read-out: Growth inhibition rate (%) of prickly sida, Measured value) came out at 0%. Further, in assay [3] (foliar, prickly sida 2.1 to 3.1 leaf stage, 20th day after application, 63 g/ha, read-out: Growth inhibition rate (%) of prickly sida, Measured value), the inhibition at 63 g/ha amounted to 0%. Moreover, the inhibition at 500 g/ha in assay [3] (foliar, prickly sida 2.1 to 3.1 leaf stage, 20th day after application, 500 g/ha, read-out: Growth inhibition rate (%) of prickly sida, Measured value) came out at 55%.
